According to patent US10280146B2, “Pyrimidone compounds used as Lp-PLA2 inhibitors and pharmaceutical compositions thereof” (Shanghai Institute of Materia Medica, Chinese Academy of …, priority 2014, dated 2019):

Key:
[1] = test system: Lp-PLA2 (rat serum as the source of enzyme); assay: In vitro inhibitory activity on Lp-PLA2, rat serum as the source of enzyme (2-thio-PAF/DTNB); type: biochemical
Experimental: (§1) 0.1M Tris-HCl, 1 mM EGTA, PH 7.2
(§2) Anhydrous ethanol was used as solvent to make a 25 mg/ml mother liquor. The solution was aliquoted, stored at −80° C. and diluted 900 times before use (about 50 μM of concentration)
(§3) 3) DTNB (5,5′-dithio-bis-(2-nitrobenzoic acid), Sigma, Lot D8130)
(§4) The solution was prepared just before use.
(§5) 4) Compound was dissolved in DMSO to a suitable concentration.
(§6) Lp-PLA2 activity was determined by using 2-thio-PAF as substrate. The thiol group produced upon the hydrolysis of 2-thio-PAF can react with DTNB to generate a yellow substance. The optical density at 414 nm can be detected to reflect Lp-PLA2 activity.
1.3 Determination of the Inhibitory Activity of the Compounds on Lp-PLA2 (Rat Serum as the Source of Enzyme (In Vitro)
1) The corresponding reagents were added according to Table 5 and mixed uniformly by shaking.
(§7) 2) 10 μL of DTNB was added to each well.
(§8) 3) 150 μL of 2-thio-PAF was added to each well and shaken for 15 s on a microplate reader to mix the liquid in the well uniformly.

[2] = target: T1, Lp-PLA2 (rabbit serum as the source of enzyme) (Oryctolagus cuniculus, UniProt G1SE06); assay: In vitro inhibitory activity on Lp-PLA2, rabbit serum as the source of enzyme (2-thio-PAF/DTNB); type: biochemical; settings: read-out: Inhibitory ratio, % on Lp-PLA2 (rabbit serum as the source of enzyme)
T1 construct: Rabbit Serum as the Source of Enzyme; from tissue; host or cells: rabbit serum
T1 sequence (G1SE06 22-423): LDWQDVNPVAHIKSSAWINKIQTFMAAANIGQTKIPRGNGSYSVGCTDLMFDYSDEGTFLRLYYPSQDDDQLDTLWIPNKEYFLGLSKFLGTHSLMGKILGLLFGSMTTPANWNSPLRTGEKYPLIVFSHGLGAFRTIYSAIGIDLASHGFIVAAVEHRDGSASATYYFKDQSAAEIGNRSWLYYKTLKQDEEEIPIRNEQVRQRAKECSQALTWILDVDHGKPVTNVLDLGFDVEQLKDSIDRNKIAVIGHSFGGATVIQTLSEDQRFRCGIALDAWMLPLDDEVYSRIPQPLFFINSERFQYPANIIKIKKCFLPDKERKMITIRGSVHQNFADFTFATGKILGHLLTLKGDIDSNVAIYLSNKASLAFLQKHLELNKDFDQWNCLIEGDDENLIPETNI
Experimental: as §1, §2, §3, §4, §5, §6
1.1 Determination of the Inhibitory Activity of the Compounds on Lp-PLA2 (Rabbit Serum as the Source of Enzyme) (In Vitro)
1) The corresponding reagents were added according to Table 1 and mixed uniformly by shaking.
as §7, §8

[3] = target: T2, Lp-PLA2 (human recombinant enzyme as the source of enzyme) (Homo sapiens, UniProt Q13093); assay: In vitro inhibitory activity on Lp-PLA2, human recombinant enzyme (2-thio-PAF/DTNB); type: biochemical; settings: read-out: inhibitory ratio, % on Lp-PLA2 (human recombinant enzyme as the source of enzyme)
T2 sequence (Q13093 22-441): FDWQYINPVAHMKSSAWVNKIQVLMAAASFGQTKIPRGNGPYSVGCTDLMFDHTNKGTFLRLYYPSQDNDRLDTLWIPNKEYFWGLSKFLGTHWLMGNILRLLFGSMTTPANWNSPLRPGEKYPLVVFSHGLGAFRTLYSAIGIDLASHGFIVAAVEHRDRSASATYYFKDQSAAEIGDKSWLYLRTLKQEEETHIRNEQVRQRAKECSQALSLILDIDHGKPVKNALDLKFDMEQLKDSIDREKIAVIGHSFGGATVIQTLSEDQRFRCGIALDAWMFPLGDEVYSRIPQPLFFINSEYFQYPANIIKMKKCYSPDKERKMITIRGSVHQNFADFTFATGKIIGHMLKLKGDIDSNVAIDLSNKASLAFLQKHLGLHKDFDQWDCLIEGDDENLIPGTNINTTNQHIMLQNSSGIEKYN
Experimental: as §1, §2, §3, §4, §5, §6
1.2 Determination of the Inhibitory Activity of the Compounds on Lp-PLA2 (Human Recombinant Enzyme as the Source of Enzyme) (In Vitro)
1) The corresponding reagents were added according to Table 3 and mixed uniformly by shaking.
as §7, §8

[4] = In vitro assay of S9 metabolic stability, rat S9; type: in vitro ADME; settings: S9 fraction, pH 7.4; rat S9, NADPH addition, 0.1 μM compound, 37° C.
Experimental: (§9) 3.1.1 The Preparation of Tris/HCl(0.1 M, pH 7.4) Buffer
(§10) 12.12 g of TRIS (tris-hydroxymethyl aminomethane) was weighed, dissolved in 800 mL of water, and adjusted to pH 7.4 with HCl (2 M), and then the volume was adjusted to 1000 mL with water.
(§11) 3.1.2 The preparation of MgCl2
(§12) MgCl2 (100 mM) solution was prepared with 0.1 M Tris/HCl buffer, aliquoted and stored at −20° C. The incubation concentration of MgCl2 was 5.0 mM.
(§13) 3.1.3 The Preparation of NADPH
(§14) NADPH (10 mM) solution was prepared with 0.1 M Tris/HCl buffer, aliquoted and stored at −20° C. The incubation concentration of NADPH was 1.0 mM.
(§15) 3.1.4 The Preparation of S9
(§16) Human S9 (purchased from Reid Liver Disease Research (Shanghai) Co., Ltd.) was diluted 10 times with 0.1 M Tris/HCl and rat S9 (purchased from Reid Liver Disease Research (Shanghai) Co., Ltd.) was diluted 5 times with 0.1 M Tris/HCl, so that the incubation concentrations of human and rat S9 were equivalent to the incubation concentrations of the liver microsomes in the corresponding species (both incubation concentrations of liver microsomes in human and rats are 0.33 mg/mL).
(§17) 3.1.5 The Preparation of the Compounds to be Tested
The compound was dissolved in DMSO to obtain a stock solution at a concentration of 10 mM. The stock solution was diluted to 1 mM with DMSO and then diluted with 0.1% BSA-water to obtain a working solution at a concentration of 2 μM. […]

[5] = In vitro assay of S9 metabolic stability, human S9; type: in vitro ADME; settings: for half-life at 0.1 μM: human, S9 fraction, pH 7.4
Experimental: as §9, §10, §11, §12, §13, §14, §15, §16, §17
The compound was dissolved in DMSO to obtain a stock solution at a concentration of 10 mM. The stock solution was diluted to 1 mM with DMSO and then diluted with 0.1% BSA-water to obtain a working solution at a concentration of 2 μM. In the incubation system, the working solution of 2 μM was diluted 20 times to a final concentration of 0.1 μM. The concentration of DMSO in the incubation system was ≤0.01%.
3.1.6 The Preparation of the Positive Control Compound
2 mM VIVID stock solution (purchased from Shanghai Beili Biotechnology Co., Ltd.) was diluted 50 times with the 2 μM working solution for the compounds to be tested. In the incubation system, the mixed working solution of VIVID and the compounds to be tested were diluted 20 times
S9 was incubated in a 96-well plate and each incubation system was 450 μL. […]

[6] = test system: Lp-PLA2 in serum of SD rats; assay: In vivo inhibition assay of Lp-PLA2 activity in SD rats, single administration; set-up: species or system rat; settings: 50 mg/kg oral, serum 1-24 h
Experimental: Each group had 5 SD rats and 50 mg/kg test agents was administrated orally to the rats. […] Blood was collected from the orbits of the rats at 0 h before administration and at 1 h, 3 h, 5 h, 7 h and 24 h after administration and placed at room temperature for 30 minutes before centrifugation. Serum was collected and the Lp-PLA2 activity in serum was measured.

[7] = 10 nM compound, — = no inhibitory activity

inhibitory ratio, % on Lp-PLA2 (rat serum as the source of enzyme) [1, 7]	inhibitory ratio, % on Lp-PLA2 (rat serum as the source of enzyme) ([1]; 100 nM compound)	inhibition at 0.01 µM [2, 7]	inhibition at 0.1 µM ([2]; 100 nM compound)	inhibition at 0.01 µM ([3]; 10 nM compound)	inhibition at 0.1 µM ([3]; 100 nM compound)	half-life at 0.1 μM [4]	half-life at 0.1 μM [5]	metabolism stability (in words) ([5]; statement covers human and rat S9)	SMILES	activity of Lp-PLA2 in serum of the SD rats after a single administration [6]
27.65%	82.48%	33.2%	65.4%	82.8%	90.1%	195 h	> 1 h	superior metabolism stability	Cn1cc(-c2cc(OCc3cc(F)c(Oc4ccc(Cl)c(C(F)(F)F)c4)c(F)c3)nc(=O)n2C)cn1 [Example 21, 4-((4-(4-chloro-3-(trifluoromethyl)phenoxy)-3,5-difluorobenzyl)oxy)-1-methyl-6-(1-methyl-1H-pyrazolyl-4)pyrimidin-2(1H)-one]	–
–	–	–	–	–	–	2.68 h	7.08 h	–	COc1cc(OCc2cc(F)c(Oc3ccc(Cl)c(C(F)(F)F)c3)c(F)c2)nc(=O)n1C [Example 65, 4-((4-(4-chloro-3-(trifluoromethyl)phenoxy)-3,5-difluorobenzyl)oxy)-6-methoxy-1-methylpyrimidin-2(1H)-one]	–
–	–	–	–	–	–	–	–	–	COc1cc(OCc2ccc(Oc3ccc(Cl)c(C(F)(F)F)c3)c(F)c2)nc(=O)n1C [Example 66, 4-((4-(4-chloro-3-(trifluoromethyl)phenoxy)-3-fluorobenzyl)oxy)-6-methoxy-1-methylpyrimidin-2(1H)-one]	comparable to darapladib
